Measurements: patent US11524055B2, “Methods for treating diseases mediated by ERBB4-positive pro-inflammatory macrophages” (Children's Hospital Los Angeles, priority 2015, dated 2022)

Test system: M1-polarized Mø (classically activated BMDMs)
Assay: Cell Titer Blue (resazurin-based) cell viability assay, classically activated (M1) BMDMs
Design: species or system mouse
Conditions: 1 h pre-treatment, then 100 ng/ml NRG4 and 100 ng/ml LPS
Procedure: (FIG. 8A) Classically activated (M1) or alternatively activated (M2) BMDMs were treated with NRG4 (100 ng/ml) for 48 hours and analyzed by resazurin-based cell titer assay to assess cell numbers compared to control. (FIG. 8B) Classically activated BMDMs pre-incubated for 30 minutes with or without 2 μg/ml ErbB4 neutralizing antibody (E4BA), and treated with or without NRG4 (100 ng/ml) for 48 hours, were stained for cleaved caspase-3. […] (FIG. 8C) Classically activated BMDMs treated with NRG4 (100 ng/ml) for 48 hours were stained for annexin V and propidium iodide (PI), and analyzed by flow cytometry to determine apoptotic cells. n=3-6 independent experiments for each panel. Error bars represent SEM. *, p<0.05; **, p<0.01.
(FIG. 9B) Classically activated BMDMs were pre-treated for 1 hour with metalloprotease inhibitor (GM6001, 10 γ-secretase inhibitor (DAPT, 10 or ADAM17 inhibitor (GW280264X, 3 μM) followed by 100 ng/ml NRG4 and 100 ng/ml LPS. Percent cell viability was analyzed by rezasurin-based cell titer assay. Error bars represent SEM. ***, p<0.001. (FIG. 9C) Immunofluorescence analysis of ErbB4 localization to the mitochondria of classically activated BMDMs treated with or without NRG4 (100 ng/ml) for 48 hours. Arrows point to representative cells with ErbB4/mitochondrial overlap. n=4 independent experiments.
IFNγ/LPS-treated Mø were exposed to NRG4 (100 ng/ml)+/−ErbB4 blocking antibody (E4BA; 2 μg/ml) for 48 h and counted by Cell Titer Blue assay (Promega). n=4. *, p<0.01.
For BMDMs, adherent cells were washed at 3 days and re-fed with M-CSF containing media until experimentation at day 7-8. For M1 polarization, cells were pre-treated with 100 U/ml IFNγ for 16 hours, then stimulated with 100 ng/ml LPS.
BMDMs were plated in 96 well plates at 40,000 cells per well. Cells were washed and plated in DMEM with 10% heat-inactivated FBS, 100 U/ml penicillin and streptomycin, and given 100 U/ml IFNγ overnight. […] Relative cell numbers were determined by Cell Titer Blue (resazurin-based assay) following manufacturer's instructions (Promega, G8081). […]

Molecule: CNC(=O)[C@H](Cc1c[nH]c2ccccc12)NC(=O)[C@@H](CC(=O)NO)CC(C)C [GM6001]
- Effect on NRG4-induced cell death (percent cell viability) (inhibitor 10 μM): protected against the NRG4-induced cell death

Molecule: GW280264X
- Effect on NRG4-induced cell death (percent cell viability) (inhibitor 3 μM): protected against the NRG4-induced cell death

Molecule: C[C@H](NC(=O)Cc1cc(F)cc(F)c1)C(=O)N[C@H](C(=O)OC(C)(C)C)c1ccccc1 [DAPT]
- Effect on NRG4-induced cell death (percent cell viability) (inhibitor 10 μM): protected against the NRG4-induced cell death
